Experiment [1] deals with CHO. Description: CHO cell viability loss, potency – luminescence, cytotoxicity control for TLR9-MyD88 binding inhibitor project, dose response (AID 588339).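 Note: CHO cells stably coexpressing TLR9 and MyD88 fusions from primary screen; compound exposure lasted 48 hours before viability readout.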 The class given is functional, cell-based, hamster. The conditions noted are these: Cricetulus griseus.
The target in experiment [2] is Beta Lactamase (Pseudomonas aeruginosa, UniProt Q932Y6). Put plainly: BLA reporter interference, concentration series – BLA reporter cells, FRET fluorescence, artefact control for TLR9-MyD88 binding inhibitor project, dose response (AID 588341).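 Note: cell based assay in CHO-K1 cells stably expressing beta-lactamase.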 The class given is cell-based.
For experiment [3], the target named is Heat shock protein HSP 90-alpha (Homo sapiens, UniProt P07900). The class given is functional, organism-based.
For experiment [4], the target named is T1, Microphthalmia-associated transcription factor (Homo sapiens, UniProt O75030).
T1 sequence (O75030 whole entry): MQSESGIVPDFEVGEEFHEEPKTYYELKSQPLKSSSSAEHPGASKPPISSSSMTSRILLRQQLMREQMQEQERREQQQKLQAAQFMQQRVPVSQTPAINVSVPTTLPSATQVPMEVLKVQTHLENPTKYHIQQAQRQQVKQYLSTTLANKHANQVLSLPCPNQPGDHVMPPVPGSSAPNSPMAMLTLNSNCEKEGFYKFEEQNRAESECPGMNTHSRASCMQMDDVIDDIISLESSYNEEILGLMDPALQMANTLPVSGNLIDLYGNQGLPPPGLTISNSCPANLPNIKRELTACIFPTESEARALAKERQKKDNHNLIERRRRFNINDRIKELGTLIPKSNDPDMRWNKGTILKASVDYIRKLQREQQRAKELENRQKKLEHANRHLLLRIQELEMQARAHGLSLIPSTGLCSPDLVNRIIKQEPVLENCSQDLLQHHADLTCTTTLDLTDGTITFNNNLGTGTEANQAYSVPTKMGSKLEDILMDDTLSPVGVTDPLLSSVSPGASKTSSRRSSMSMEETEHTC
Put plainly: reducers of TRPM1 reporter luminescence, concentration series – cell-based, SK-MEL-5, cherry-picked, set 3, MITF inhibitor project, dose response (AID 493073).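 Note: SK-MEL-5 melanoma cells with luciferase driven by the MITF target TRPM1 promoter.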 It is filed as functional.

Experiment [5] deals with Latent membrane protein 1 (Human herpesvirus 4 (strain B95-8), UniProt P03230). Put plainly: LMP1 TES1 pathway selectivity over dsRED control – imaging, HEK293T, dual-color eGFP/dsRED, cherry-picks, selectivity assay for LMP1 NF-kB inhibitor project, dose response (AID 588398). The class given is functional, cell-based.
A short description of experiment [6]: Luminescence Cell-Based Dose Response HTS to Identify Inhibitors of 5'UTR Stem-Loop Driven Prion Protein mRNA Translation in H4 Neuroglioblastoma Cells. [Related pubchem assays: 1827 (Project Summary), 1813 (Primary HTS)]. The class given is functional.
Experiment [7] has as its system HEK293. Description: SAR Analysis of small molecule inhibitors of both B-cell and T-cell specific antigen receptor-induced NF-kB activation in a HEK-293T cell line using a luminescence assay. [Related pubchem assays (depositor defined):AID435003, AID435022, AID465, AID489019, AID489029]. The class given is functional, cell-based. The following applies: Homo sapiens.

For experiment [8], the target named is Kappa-type opioid receptor (Homo sapiens, UniProt P41145). It is filed as functional.
The target of experiment [9] is T2, Beta-galactosidase (Escherichia coli, UniProt Q8VNN2). It is filed as functional.
For experiment [10], the system named is A-375. Description: proliferation inhibition in MITF-low A375 cells – cell-based, cherry-pick samples, set 2, counter-screen for MITF modulator project, dose response (AID 540335). The class given is functional. The following applies: Homo sapiens.
Experiment [11] has as its target T2, Beta-galactosidase. Description: PubChem AID 485352. It is filed as functional.
A short description of experiment [12]: viability of PTEN-deleted HCT116 cells – cell-based, HCT116 PTEN knockout, dose response (AID 1047).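 Note: HCT116 colon tumor cells with PTEN knocked out; cells exposed to compound for 60 hours before readout.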 The class given is functional.
Experiment [13] concerns the target T3, Delta-type opioid receptor (Homo sapiens, UniProt P41143). Put plainly: HTS Image-Based Screen for Antagonists of the DOR Receptor. [Related pubchem assays (depositor defined):AID1777, AID1785, AID1786, AID2133]. It is filed as functional.
Experiment [14] can be described thus: viability of HCT116 lacking mutant beta-catenin – cell-based, human colon tumor, dose response (AID 1045).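 Note: HCT116 colon tumor cells with beta catenin knocked out; cells exposed to compound for 60 hours.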 The class given is functional.
The test system of experiment [15] is Vero. Description: mammalian cell viability reduction – secondary assay, cytotoxicity control for West Nile virus antiviral project, dose response (AID 1650). The class given is functional. The following applies: Chlorocebus sabaeus.
The target of experiment [16] is Sphingosine 1-phosphate receptor 1 (Homo sapiens, UniProt P21453). It is filed as functional.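 Note: Tango beta-arrestin reporter U2OS cells stimulated with S1P near its EC80; inhibitor potency meaning antagonism of receptor activation by the natural agonist.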
Experiment [17] relates to A-375. Description: MITF: Counter assay: A375 proliferation Measured in Cell-Based System Using Plate Reader - 2084-03_Inhibitor_Dose_DryPowder_Activity. [Related pubchem assays (depositor defined):AID488944]. The class given is functional. The following applies: Homo sapiens.
The target of experiment [18] is T3, Delta-type opioid receptor. Put plainly: HTS Image-Based Screen for Agonists of the DOR Receptor. [Related pubchem assays (depositor defined):AID1777, AID1786, AID2133]. It is filed as functional.
Experiment [19] is described as follows: Luminescence-based dose response cell-based high throughput screening assay for cytotoxic compounds using the IEC-6 intestinal epithelial cell line. [Related pubchem assays: 1858 (Summary AID.), 1825 (Counterscreen.), 1907 (Confirmation screen.)]. It is filed as functional. A general note: The purpose of a counterscreen is to sort out artefacts and off-target activity.

Experiment [20] concerns the target Mu-type opioid receptor (Homo sapiens, UniProt P35372). Description: HTS Image-Based Screen for Agonists of the MOR Receptor. [Related pubchem assays (depositor defined):AID1777, AID1785, AID1786, AID2133]. It is filed as functional.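 Note: imaging of beta-arrestin GFP recruitment into spots after receptor activation.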
The test system of experiment [21] is Jurkat. Description: SAR Analysis of small molecule inhibitors of both B-cell and T-cell specific antigen receptor-induced NF-kB activation in a Jurkat cell line using a luminescence assay. [Related pubchem assays (depositor defined):AID435003, AID435022, AID465, AID489029]. The following applies: Homo sapiens. The class given is functional, cell-based.
A short description of experiment [22]: alpha-synuclein stem-loop luciferase translation blockers – H4 neuroglioma cells, luminescence, confirmation (AID 1988). The class given is functional, cell-based.
Experiment [23] concerns the target T4, Sphingosine 1-phosphate receptor 4 (Homo sapiens, UniProt O95977).
T4 sequence (O95977 whole entry): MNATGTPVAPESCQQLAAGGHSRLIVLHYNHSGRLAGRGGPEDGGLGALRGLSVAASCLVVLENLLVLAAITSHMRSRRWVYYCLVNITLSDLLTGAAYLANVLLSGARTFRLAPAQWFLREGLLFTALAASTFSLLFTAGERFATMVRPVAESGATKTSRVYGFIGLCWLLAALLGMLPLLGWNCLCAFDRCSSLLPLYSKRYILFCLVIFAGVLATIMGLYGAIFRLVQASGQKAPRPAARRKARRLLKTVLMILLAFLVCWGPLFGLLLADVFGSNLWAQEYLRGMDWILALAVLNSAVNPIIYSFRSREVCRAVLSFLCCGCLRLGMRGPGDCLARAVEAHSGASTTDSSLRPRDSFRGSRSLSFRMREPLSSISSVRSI
Description: Late stage fluorescence dose response cell-based screening assay for antagonists of the Sphingosine 1-Phosphate Receptor 4 (S1P4). [Related pubchem assays: 1524 (Confirmation screen (S1P4 antagonists).), 1510 (Primary screen (S1P4 antagonists).), 1853 (Summary AID (S1P4 antagonists).), 1692 (Dose response screen (S1P4 antagonists).)]. The class given is functional.

The target in experiment [24] is T4, Sphingosine 1-phosphate receptor 4. Put plainly: Fluorescence dose response cell-based high throughput screening assay for antagonists of the Sphingosine 1-Phosphate Receptor 4 (S1P4). [Related pubchem assays: 1524 (Confirmation in triplicates.), 1510 (Primary screen.)]. It is filed as functional.
Experiment [25] concerns the target T5, Type-1 angiotensin II receptor (Homo sapiens, UniProt P30556).
T5 sequence (P30556 whole entry): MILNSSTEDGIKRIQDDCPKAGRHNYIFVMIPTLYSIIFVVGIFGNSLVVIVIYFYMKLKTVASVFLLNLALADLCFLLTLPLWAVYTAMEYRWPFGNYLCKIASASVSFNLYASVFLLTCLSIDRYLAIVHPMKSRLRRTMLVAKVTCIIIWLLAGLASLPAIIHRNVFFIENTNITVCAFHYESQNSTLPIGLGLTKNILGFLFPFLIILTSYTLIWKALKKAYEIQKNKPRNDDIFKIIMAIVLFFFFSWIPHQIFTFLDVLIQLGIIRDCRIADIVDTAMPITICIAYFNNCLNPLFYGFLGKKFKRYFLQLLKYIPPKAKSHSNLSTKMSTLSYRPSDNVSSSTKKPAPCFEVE
Put plainly: antagonism of angiotensin II type 1 receptor – cell-based, uHTS hits, selectivity assay for APJ receptor antagonist project, dose response (AID 463214).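 Note: antagonist potency against angiotensin II stimulated AT1 response.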 It is filed as functional.

Experiment [26] deals with HEK293. Put plainly: HEK293T cell viability loss, resazurin readout – resazurin fluorescence, cytotoxicity control for NF-kB activator project, SAR follow-up (AID 493251). It is filed as functional, cell-based. The following applies: Homo sapiens.
Experiment [27] in a line: luciferase reporter signal suppression in cells – H4 neuroglioma cells, luminescence, dose response (AID 1990). The class given is functional, cell-based. (In general: In a reporter assay the amount or activity of a reporter protein is the signal.)
In experiment [28] the target is Apoptotic protease-activating factor 1 (Homo sapiens, UniProt O14727). The class given is functional.
For experiment [29], the target named is Glycogen synthase kinase-3 beta (Homo sapiens, UniProt P49841). Description: Inhibition of Human GSK-3 beta Activity Measured in Biochemical System Using Microfluidics - 2063-05_Inhibitor_Dose_DryPowder_Activity_Set2. [Related pubchem assays (depositor defined):AID2709].
In experiment [30] the target is Glycogen synthase kinase-3 alpha (Homo sapiens, UniProt P49840). Put plainly: Inhibition of Human GSK-3 alpha Activity Measured in Biochemical System Using Microfluidics - 2063-06_Inhibitor_Dose_DryPowder_Activity_Set2. [Related pubchem assays (depositor defined):AID2709].
In experiment [31] the test system is INS1. Put plainly: INS-1E mitochondrial potential loss inhibitors – cell-based, JC-1 fluorescence, dry powder, set 2, dose response (AID 488867). It is filed as functional. The following applies: Rattus norvegicus.
Experiment [32] has as its system INS1. Put plainly: beta-cell survival under cytokine stress – INS-1E, ATP luminescence, dry powder, dose response (AID 488844). The class given is functional, cell-based. The following applies: Rattus norvegicus.
Experiment [33] deals with INS1. Description: suppression of NO production in INS-1E cells – cell-based, Griess absorbance, dry powder, set 2, dose response (AID 488868). The class given is functional. The conditions noted are these: Rattus norvegicus. In general terms: The Griess reaction detects nitrite, a stable product of nitric oxide.

These results are taken from ChEMBL document CHEMBL1201862, “PubChem BioAssay data set” (2004).

One may read the IC50 as the concentration that inhibits the measured activity by half. Broadly, the AC50 is the concentration giving half of the maximal activity seen. What is called EC50 is the concentration needed to bring the measured effect to its halfway point. Broadly, the CC50 is the concentration giving 50% cytotoxicity.

Structures are written as SMILES. Active and inactive are the calls of the source.

T3 sequence (P41143 whole entry): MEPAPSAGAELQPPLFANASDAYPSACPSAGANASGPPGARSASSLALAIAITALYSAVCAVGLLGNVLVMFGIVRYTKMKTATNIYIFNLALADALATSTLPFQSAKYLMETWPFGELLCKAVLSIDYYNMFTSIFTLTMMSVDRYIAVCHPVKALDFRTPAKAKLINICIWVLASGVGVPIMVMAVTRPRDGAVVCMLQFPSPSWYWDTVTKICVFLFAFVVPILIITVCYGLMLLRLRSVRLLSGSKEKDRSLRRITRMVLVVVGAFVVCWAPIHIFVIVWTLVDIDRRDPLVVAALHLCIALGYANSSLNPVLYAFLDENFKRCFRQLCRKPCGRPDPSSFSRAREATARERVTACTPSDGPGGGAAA
T2 sequence (Q8VNN2 whole entry): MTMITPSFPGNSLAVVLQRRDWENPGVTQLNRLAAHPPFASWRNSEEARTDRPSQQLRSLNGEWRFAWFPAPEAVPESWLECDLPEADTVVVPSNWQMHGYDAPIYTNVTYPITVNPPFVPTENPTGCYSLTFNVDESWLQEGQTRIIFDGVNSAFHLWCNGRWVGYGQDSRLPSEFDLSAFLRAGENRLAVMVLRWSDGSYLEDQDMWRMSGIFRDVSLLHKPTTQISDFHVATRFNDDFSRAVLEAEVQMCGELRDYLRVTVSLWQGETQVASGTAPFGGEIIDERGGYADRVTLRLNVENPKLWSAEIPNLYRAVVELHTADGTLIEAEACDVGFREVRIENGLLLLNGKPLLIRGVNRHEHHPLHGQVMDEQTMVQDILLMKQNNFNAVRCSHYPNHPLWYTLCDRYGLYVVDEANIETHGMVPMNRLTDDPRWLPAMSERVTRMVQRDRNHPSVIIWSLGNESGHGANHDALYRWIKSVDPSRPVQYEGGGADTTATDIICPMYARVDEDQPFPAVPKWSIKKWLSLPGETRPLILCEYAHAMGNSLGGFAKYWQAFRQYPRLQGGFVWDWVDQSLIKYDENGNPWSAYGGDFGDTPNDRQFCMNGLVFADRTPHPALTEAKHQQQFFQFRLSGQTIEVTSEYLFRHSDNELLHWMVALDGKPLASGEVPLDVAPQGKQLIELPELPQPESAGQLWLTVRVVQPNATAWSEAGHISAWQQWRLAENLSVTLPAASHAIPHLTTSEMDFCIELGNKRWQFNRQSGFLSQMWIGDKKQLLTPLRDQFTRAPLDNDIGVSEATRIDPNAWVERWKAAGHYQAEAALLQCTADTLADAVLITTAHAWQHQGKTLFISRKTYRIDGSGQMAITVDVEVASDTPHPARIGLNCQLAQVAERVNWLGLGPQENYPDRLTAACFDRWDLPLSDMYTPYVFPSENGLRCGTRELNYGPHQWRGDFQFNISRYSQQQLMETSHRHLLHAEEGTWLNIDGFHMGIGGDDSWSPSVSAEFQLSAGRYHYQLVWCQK
Sequence of Latent membrane protein 1 (P03230 whole entry): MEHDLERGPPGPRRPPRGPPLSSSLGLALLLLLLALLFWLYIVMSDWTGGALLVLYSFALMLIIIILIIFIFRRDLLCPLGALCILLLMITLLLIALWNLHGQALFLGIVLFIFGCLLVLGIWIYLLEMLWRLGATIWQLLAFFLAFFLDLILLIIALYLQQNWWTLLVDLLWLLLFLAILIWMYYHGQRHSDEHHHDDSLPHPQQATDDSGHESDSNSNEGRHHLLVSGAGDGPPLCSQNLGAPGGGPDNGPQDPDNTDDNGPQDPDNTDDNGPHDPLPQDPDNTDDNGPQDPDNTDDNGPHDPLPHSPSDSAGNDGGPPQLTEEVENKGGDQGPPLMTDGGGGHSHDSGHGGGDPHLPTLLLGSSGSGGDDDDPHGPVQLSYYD
Sequence of Sphingosine 1-phosphate receptor 1 (P21453 whole entry): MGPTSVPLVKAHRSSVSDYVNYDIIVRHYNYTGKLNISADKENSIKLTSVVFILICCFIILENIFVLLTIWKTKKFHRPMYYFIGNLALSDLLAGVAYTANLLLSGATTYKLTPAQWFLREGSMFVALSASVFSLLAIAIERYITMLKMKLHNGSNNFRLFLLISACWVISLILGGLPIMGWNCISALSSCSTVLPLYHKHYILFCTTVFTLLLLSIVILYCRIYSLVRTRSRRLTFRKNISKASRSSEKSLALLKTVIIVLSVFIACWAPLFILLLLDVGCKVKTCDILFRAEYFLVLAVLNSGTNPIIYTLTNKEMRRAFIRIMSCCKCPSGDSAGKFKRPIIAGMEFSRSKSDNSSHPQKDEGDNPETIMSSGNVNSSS
Sequence of Apoptotic protease-activating factor 1 (O14727 whole entry): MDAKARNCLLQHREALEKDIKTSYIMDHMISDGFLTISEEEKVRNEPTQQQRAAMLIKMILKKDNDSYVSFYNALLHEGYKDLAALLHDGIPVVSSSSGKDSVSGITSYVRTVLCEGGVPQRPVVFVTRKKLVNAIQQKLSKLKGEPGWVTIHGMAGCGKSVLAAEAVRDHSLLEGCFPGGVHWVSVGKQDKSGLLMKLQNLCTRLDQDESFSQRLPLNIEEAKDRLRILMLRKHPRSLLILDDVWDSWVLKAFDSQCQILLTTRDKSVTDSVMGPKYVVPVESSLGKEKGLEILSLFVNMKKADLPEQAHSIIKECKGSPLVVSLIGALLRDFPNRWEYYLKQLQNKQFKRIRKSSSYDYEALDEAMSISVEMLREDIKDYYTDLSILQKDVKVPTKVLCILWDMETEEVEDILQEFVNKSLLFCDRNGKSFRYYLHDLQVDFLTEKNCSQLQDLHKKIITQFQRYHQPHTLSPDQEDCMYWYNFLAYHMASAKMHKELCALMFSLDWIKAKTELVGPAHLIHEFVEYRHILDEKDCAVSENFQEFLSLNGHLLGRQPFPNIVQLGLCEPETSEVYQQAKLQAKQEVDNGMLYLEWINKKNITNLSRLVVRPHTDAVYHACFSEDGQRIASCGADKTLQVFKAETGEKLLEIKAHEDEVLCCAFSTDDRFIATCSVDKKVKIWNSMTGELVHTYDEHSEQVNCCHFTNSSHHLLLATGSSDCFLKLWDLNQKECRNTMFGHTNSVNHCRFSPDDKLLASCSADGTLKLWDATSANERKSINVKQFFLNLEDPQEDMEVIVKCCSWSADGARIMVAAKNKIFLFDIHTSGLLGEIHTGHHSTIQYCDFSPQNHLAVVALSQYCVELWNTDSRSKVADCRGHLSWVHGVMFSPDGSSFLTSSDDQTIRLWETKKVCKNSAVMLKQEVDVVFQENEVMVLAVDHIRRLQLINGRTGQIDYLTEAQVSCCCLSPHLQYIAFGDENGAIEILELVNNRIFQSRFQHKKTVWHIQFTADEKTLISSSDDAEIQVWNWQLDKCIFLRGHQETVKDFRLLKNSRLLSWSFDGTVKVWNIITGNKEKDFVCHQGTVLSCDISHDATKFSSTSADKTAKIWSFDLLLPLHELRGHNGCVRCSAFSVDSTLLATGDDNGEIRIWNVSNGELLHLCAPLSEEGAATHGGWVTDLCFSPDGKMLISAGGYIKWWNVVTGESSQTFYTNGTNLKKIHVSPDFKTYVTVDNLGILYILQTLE
Sequence of Glycogen synthase kinase-3 beta (P49841 whole entry): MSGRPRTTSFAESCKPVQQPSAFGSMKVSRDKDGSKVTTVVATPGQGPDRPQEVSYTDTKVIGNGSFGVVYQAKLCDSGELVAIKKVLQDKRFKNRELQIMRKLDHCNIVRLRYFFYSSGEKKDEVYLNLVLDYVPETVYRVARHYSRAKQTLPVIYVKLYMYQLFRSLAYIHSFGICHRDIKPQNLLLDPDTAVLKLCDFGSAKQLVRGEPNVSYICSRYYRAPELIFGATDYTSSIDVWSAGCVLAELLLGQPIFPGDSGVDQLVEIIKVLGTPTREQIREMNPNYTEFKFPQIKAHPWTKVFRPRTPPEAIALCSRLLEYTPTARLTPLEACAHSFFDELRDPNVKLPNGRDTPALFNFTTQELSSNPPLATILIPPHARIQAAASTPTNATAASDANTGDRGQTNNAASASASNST
Sequence of Mu-type opioid receptor (P35372 whole entry): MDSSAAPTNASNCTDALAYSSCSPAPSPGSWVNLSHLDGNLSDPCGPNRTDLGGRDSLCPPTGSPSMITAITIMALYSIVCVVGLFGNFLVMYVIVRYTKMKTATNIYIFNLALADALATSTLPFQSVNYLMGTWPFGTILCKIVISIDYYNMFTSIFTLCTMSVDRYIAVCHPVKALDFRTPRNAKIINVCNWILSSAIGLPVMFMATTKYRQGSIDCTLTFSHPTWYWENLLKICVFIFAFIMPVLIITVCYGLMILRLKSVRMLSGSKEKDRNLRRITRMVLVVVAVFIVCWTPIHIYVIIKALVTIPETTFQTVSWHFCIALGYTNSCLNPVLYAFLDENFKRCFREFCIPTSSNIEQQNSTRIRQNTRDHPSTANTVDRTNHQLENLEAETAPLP
Sequence of Kappa-type opioid receptor (P41145 whole entry): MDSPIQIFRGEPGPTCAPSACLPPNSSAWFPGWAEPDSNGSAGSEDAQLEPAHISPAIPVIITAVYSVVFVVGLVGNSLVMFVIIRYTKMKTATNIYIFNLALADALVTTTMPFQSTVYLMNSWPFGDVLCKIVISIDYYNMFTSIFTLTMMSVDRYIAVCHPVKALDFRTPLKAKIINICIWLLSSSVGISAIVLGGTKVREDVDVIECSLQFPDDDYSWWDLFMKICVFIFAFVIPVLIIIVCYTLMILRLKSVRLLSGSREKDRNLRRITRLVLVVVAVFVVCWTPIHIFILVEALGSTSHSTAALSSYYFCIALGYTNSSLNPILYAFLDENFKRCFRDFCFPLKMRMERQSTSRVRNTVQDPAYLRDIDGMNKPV
Sequence of Beta Lactamase (Q932Y6 whole entry): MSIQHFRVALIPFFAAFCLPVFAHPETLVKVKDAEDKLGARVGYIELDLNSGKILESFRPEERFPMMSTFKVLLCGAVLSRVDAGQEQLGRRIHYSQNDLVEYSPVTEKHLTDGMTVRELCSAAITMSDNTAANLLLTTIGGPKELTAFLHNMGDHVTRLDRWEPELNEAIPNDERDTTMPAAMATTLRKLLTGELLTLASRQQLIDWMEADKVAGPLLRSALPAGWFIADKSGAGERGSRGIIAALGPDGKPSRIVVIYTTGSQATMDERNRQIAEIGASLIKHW

Take `O=C(c1ccccc1)c1cc(Cl)ccc1N1C(=O)C=CC1=O`: the results for the 50% inhibitory concentration (IC50) in experiment [1] and in experiment [2] were 2.26 µM (active) and 14.7 µM (inactive), respectively. In addition, the AC50 in [3] was 0.552 µM (active); in [4] it was 11.9 µM (active).
Consider `OCCN(CCO)CC(O)COCCC12CC3CC(CC(C3)C1)C2` (centres undefined), for which the half-maximal activity concentration (AC50) in [5] was 77.6 µM (active).
On to `Cc1ccc(S(=O)(=O)Nc2cccc3cccnc23)cc1`, for which the EC50 was 15.2 µM (active) in [6]; > 31.5 µM (inactive) in [9]; > 40 µM (inactive) in experiment [11]; 2.84 µM (active) in experiment [12]; 2.5 µM (active) in [14]; > 32 µM (inactive) in experiment [18]. In addition, the figures for the EC50 in [20], in experiment [22] and in experiment [27] were > 32 µM (inactive), 11.5 µM (active) and 13.7 µM (active), respectively. Moreover, the half-maximal inhibitory concentration (IC50) is 18.1 µM (active) in experiment [7]; 2.57 µM (active) in experiment [8]; > 32 µM (inactive) in [13]; 1.42 µM (active) in experiment [16]; 1.84 µM (active) in experiment [19]; 1.06 µM (active) in experiment [21]. Moreover, the half-inhibitory concentration (IC50) in [23] is 0.55 µM (active); in experiment [24] it was 0.63 µM (active); in experiment [25], 3.67 µM (active); in [26] it was 56.8 µM (inactive). The half-maximal activity concentration (AC50) is > 35 µM (active) in experiment [10], 5.55 µM (active) in [4] and > 35 µM (active) in experiment [17]. Besides, the CC50 in experiment [15] is 6.89 µM (active).
Turning to `Cc1ccc(-n2nc3ccc(N)cc3n2)cc1Cl`, the IC50 in [28] is > 100 µM (inactive).
Turning to `Nc1nonc1-n1nnc(C(=O)N/N=C/c2ccccc2Cl)c1CN1CCOCC1`, the half-maximal activity concentration (AC50) in experiment [29] was 2 µM (active); in experiment [30] it was 5.64 µM (active).
Regarding `COc1ccc(S(=O)(=O)N(C)C[C@@H]2Oc3c(NC(=O)Nc4cccc5ccccc45)cccc3C(=O)N([C@H](C)CO)C[C@H]2C)cc1`, the AC50 was > 235 µM (inactive) in experiment [31], 18.4 µM (active) in [32] and 74.5 µM (active) in experiment [33].
